Measurements taken from ChEMBL document CHEMBL4138122, “Azaphenothiazines - promising phenothiazine derivatives. An insight into nomenclature, synthesis, structure elucidation and biological properties” (Eur J Med Chem, 2017).
In brackets after ≈: the same amount, converted by molar mass.

Experiments:
Escherichia coli = assay: Antibacterial activity against Escherichia coli by CLSI protocol based method; format: functional
Aspergillus niger = assay: Antifungal activity against Aspergillus niger by CLSI protocol based method; format: functional
[1] = tested on: Mycobacterium tuberculosis; assay: Antitubercular activity against Mycobacterium tuberculosis; format: functional
UO-31 = assay: Growth inhibition of human UO31 cells at 10 uM; format: functional; settings: read-out: GI
SK-MEL-2 = assay: Growth inhibition of human SK-MEL-2 cells at 10 uM; format: functional; settings: read-out: GI
Trachea = assay: Inhibition of egg albumin antigen challenge-induced contraction response in methacholine-primed guinea pig trachea at 10 ug/ml; format: functional; settings: Cavia porcellus
[2] = Inhibition of LTB4 formation in rat polymorphonuclear leukocytes preincubated for 2 mins followed by A-23187 addition after 4 mins; format: functional, cell-based
Rattus norvegicus = assay: Inhibition of PAF-induced hyperalgesia in Sprague-Dawley rat at 10 mg/kg, po dosed 30 mins prior to PAF challenge and measured 1 to 4 hours post PAF challenge; format: functional
T47D = assay: Growth inhibition of human T47D cells at 10 uM; format: functional; settings: read-out: GI
MCF7 [3] = assay: Growth inhibition of human MCF7 cells at 10 uM; format: functional; settings: read-out: GI
NCI-H460 = assay: Cytotoxicity against human NCI-H460 cells assessed as cell growth inhibition after 48 hrs by SRB assay; format: functional, cell-based; settings: NCI-H460, 48 h
PC-3 [4] = assay: Cytotoxicity against human PC3 cells assessed as cell growth inhibition after 48 hrs by SRB assay; format: functional, cell-based; settings: PC-3, 48 h
SK-MEL-5 = assay: Cytotoxicity against human SK-MEL-5 cells assessed as cell growth inhibition after 48 hrs by SRB assay; format: functional, cell-based; settings: SK-MEL-5, 48 h
SF-295 = assay: Cytotoxicity against human SF295 cells assessed as cell growth inhibition after 48 hrs by SRB assay; format: functional, cell-based; settings: SF-295, 48 h
HOP-92 = assay: Cytotoxicity against human HOP92 cells assessed as cell growth inhibition after 48 hrs by SRB assay; format: functional, cell-based; settings: HOP-92, 48 h
CCRF-CEM = assay: Cytotoxicity against human CCRF-CEM cells assessed as cell growth inhibition after 48 hrs by SRB assay; format: functional, cell-based
786-0 = assay: Cytotoxicity against human 786-O cells assessed as cell growth inhibition after 48 hrs by SRB assay; format: functional, cell-based; settings: 786-0, 48 h
OVCAR-4 = assay: Cytotoxicity against human OVCAR4 cells assessed as cell growth inhibition after 48 hrs by SRB assay; format: functional, cell-based; settings: OVCAR-4, 48 h
SNB-75 = assay: Cytotoxicity against human SNB75 cells assessed as cell growth inhibition after 48 hrs by SRB assay; format: functional, cell-based; settings: SNB-75, 48 h
IGROV-1 = assay: Cytotoxicity against human IGROV1 cells assessed as cell growth inhibition after 48 hrs by SRB assay; format: functional, cell-based; settings: IGROV-1, 48 h
HCT-116 [5] = assay: Cytotoxicity against human HCT116 cells assessed as cell growth inhibition after 48 hrs by SRB assay; format: functional, cell-based; settings: HCT-116, 48 h
OVCAR-5 = assay: Cytotoxicity against human OVCAR5 cells assessed as cell growth inhibition after 48 hrs by SRB assay; format: functional, cell-based; settings: OVCAR-5, 48 h
MOLT-4 = assay: Cytotoxicity against human MOLT4 cells assessed as cell growth inhibition after 48 hrs by SRB assay; format: functional, cell-based; settings: MOLT-4, 48 h
HepG2 = assay: cells; settings: Homo sapiens, HepG2, 72 h
Description: Cytotoxicity against human HepG2 cells assessed as inhibition of cell growth after 72 hrs by SRB assay

PC-3 [6] = assay: Cytotoxicity against human PC3 cells assessed as inhibition of cell growth after 72 hrs by SRB assay; format: functional, cell-based; settings: PC-3, 72 h
HCT-116 [7] = assay: Cytotoxicity against human HCT116 cells assessed as inhibition of cell growth after 72 hrs by SRB assay; format: functional, cell-based; settings: HCT-116, 72 h
MCF7 [8] = assay: Cytotoxicity against human MCF7 cells assessed as inhibition of cell growth after 72 hrs by SRB assay; format: functional, cell-based; settings: MCF7, 72 h
MCF7 [9] = assay: Cytotoxicity against human MCF7 cells assessed as cell growth inhibition after 48 hrs by SRB assay; format: functional, cell-based; settings: MCF7, 48 h
EKVX = assay: Cytotoxicity against human EKVX cells assessed as cell growth inhibition at 2.1 ug/ml after 48 hrs by SRB assay; format: functional, cell-based
SF-268 = assay: Cytotoxicity against human SF268 cells assessed as cell growth inhibition after 48 hrs by SRB assay; format: functional, cell-based; settings: SF-268, 48 h
Malme-3M = assay: Cytotoxicity against human MALME-3M cells assessed as cell growth inhibition after 48 hrs by SRB assay; format: functional, cell-based
OVCAR-3 = assay: Cytotoxicity against human OVCAR3 cells assessed as cell growth inhibition after 48 hrs by SRB assay; format: functional, cell-based; settings: OVCAR-3, 48 h
COLO 205 = assay: Cytotoxicity against human COLO205 cells assessed as cell growth inhibition after 48 hrs by SRB assay; format: functional, cell-based; settings: COLO 205, 48 h
SR = assay: Cytotoxicity against human SR cells assessed as cell growth inhibition after 48 hrs by SRB assay; format: functional, cell-based
RXF 393 = assay: Cytotoxicity against human RXF393 cells assessed as cell growth inhibition after 48 hrs by SRB assay; format: functional, cell-based; settings: RXF 393, 48 h

CCSc1ncc2c(n1)N=c1c(Cl)c3c(c(Cl)c1S2)=Nc1nc(SCC)nc(O)c1S3
MIC (Escherichia coli): 169 µg/mL (≈ 320 µM) | MIC (Aspergillus niger): 138 µg/mL (≈ 262 µM)

CCN(c1cnc2sc3c4c(=O)c5c(O)c(C)c6c(c5c-3nc2c1)C(=O)[C@@](C)(O/C=C/[C@H](OC)[C@@H](C)[C@@H](OC(C)=O)[C@H](C)[C@H](O)[C@H](C)[C@@H](O)[C@@H](C)/C=C/C=C(/C)C(=O)N4)O6)C(C)C
MIC [1]: 0.005 µg/mL (≈ 0.00564 µM)

c1ccc(N2c3nc4ccccc4cc3Sc3cc4ccccc4nc32)nc1
inhibition of growth at 10 µM (UO-31): 57 to 73% | inhibition of growth at 10 µM (SK-MEL-2): 61%

c1ccc2c(c1)Nc1nccnc1S2
inhibition at 10 µg/mL (Trachea): 85% | IC50 [2]: 1 to 5 µg/mL (≈ 4.97 to 24.8 µM) | inhibition in vivo at 10 mg/kg (Rattus norvegicus): 70%

CCCCN1c2nc3ccccc3cc2Sc2cc3ccccc3nc21
inhibition of growth at 10 µM (UO-31): 78% | inhibition of growth at 10 µM (T47D): 86% | inhibition of growth at 10 µM (MCF7 [3]): 93%

O=C(NCCCl)NCCN1c2nc3ccccc3cc2Sc2cc3ccccc3nc21
IC50 (NCI-H460): 0.25 to 1 µM | IC50 (PC-3 [4]): 0.25 to 1 µM | IC50 (SK-MEL-5): 0.087 µM | IC50 (SF-295): 0.25 to 1 µM | IC50 (HOP-92): 0.25 to 1 µM | IC50 (CCRF-CEM): 0.25 to 1 µM | IC50 (786-0): 0.25 to 1 µM | IC50 (OVCAR-4): 0.25 to 1 µM | IC50 (SNB-75): 0.25 to 1 µM | IC50 (IGROV-1): 0.25 to 1 µM | IC50 (HCT-116 [5]): 0.25 to 1 µM | IC50 (OVCAR-5): 0.25 to 1 µM | IC50 (MOLT-4): 0.25 to 1 µM

COc1ccc(-c2c3c(N)c4c(nc3nc3[nH]nc(-c5ccccc5)c23)Sc2ccccc2N4)cc1
IC50 (HepG2): 19.1 µM | IC50 (PC-3 [6]): 34.5 to 36.5 µM | IC50 (HCT-116 [7]): 34.5 to 36.5 µM | IC50 (MCF7 [8]): 34.5 to 36.5 µM

[Cl-].c1ccc2nc3c(cc2c1)Sc1cc2ccccc2[n+]2c1N3CC2
IC50 (NCI-H460): 7.4 µg/mL | IC50 (PC-3 [4]): 10 µg/mL | IC50 (MCF7 [9]): 3.2 µg/mL | IC50 (SK-MEL-5): 1.5 µg/mL | IC50 (EKVX): 7.6 µg/mL | IC50 (SF-268): 8.5 µg/mL | IC50 (Malme-3M): 1.3 µg/mL | IC50 (OVCAR-3): 7.8 µg/mL | IC50 (COLO 205): 1.3 µg/mL | IC50 (SR): 4.9 µg/mL | IC50 (RXF 393): 5 µg/mL
